Measured values: US20080057129A1, “Drug microparticles” (priority 2006, published 2008)
Blank lines part the entries; values can stand above or below the compound they belong to.

How the values were obtained:
[1] = Solubility of drug in menthol melt; assay type: physicochemical; conditions: for Solubility: in menthol melt
Procedure: Menthol (10 grams) was melted on a stirring hot plate with magnetic stirring, then heated to the desired temperature indicated in Table 1. The desired drug was added in small increments (approximately 0.1 grams) and stirred to obtain a clear solution. The desired drug was added in increments until no more drug dissolved in the menthol.
Menthol (10 grams) was melted on a stirring hot plate with magnetic stirring, then heated to the desired temperature indicated in Table 1. The Azithromycin was added in small increments (0.1 grams) and stirred to obtain a clear solution. The drug was added in increments until no more drug dissolved in the menthol.

[2] = system: antimicrobial peptide gene expression; conditions: Wang et al., J. Immunol. 2004; cited from earlier work

Compound: CC[C@H]1OC(=O)[C@H](C)[C@@H](O[C@H]2C[C@@](C)(OC)[C@@H](O)[C@H](C)O2)[C@H](C)[C@@H](O[C@@H]2O[C@H](C)C[C@H](N(C)C)[C@H]2O)[C@](C)(O)C[C@@H](C)CN(C)[C@H](C)[C@@H](O)[C@]1(C)O [Azithromycin]
Solubility ([1]; 63 °C): 40.0 % w/w

Compound: O=C(O)c1ccccc1O [Salicylic acid]
Solubility ([1]; 43 °C): 16.0 % w/w

Compound: C=C1/C(=C\C=C2/CCC[C@]3(C)[C@@H]([C@H](C)CCCC(C)(C)O)CC[C@@H]23)C[C@@H](O)C[C@@H]1O [calcitriol, 1,25-dihydroxyvitamin D3]
induction of antimicrobial peptide gene expression [2]: inducer of the antimicrobial peptide gene expression

Now from value to compound:

solubility in the menthol melt ([1]; without the additives PEG 6000 and Poloxamer 407): soluble
Compound: CC(=O)O[C@@]12CO[C@@H]1C[C@H](O)[C@@]1(C)C(=O)[C@H](O)C3=C(C)[C@@H](OC(=O)[C@H](O)[C@@H](NC(=O)OC(C)(C)C)c4ccccc4)C[C@@](O)([C@@H](OC(=O)c4ccccc4)[C@H]21)C3(C)C [Docetaxel]

solubility in menthol ([1]; 60° C.): 1%
Solubility ([1]; 61 °C): 1.0 % w/w
Compound: CCC(C)n1ncn(-c2ccc(N3CCN(c4ccc(OCC5COC(Cn6cncn6)(c6ccc(Cl)cc6Cl)O5)cc4)CC3)cc2)c1=O (stereo not drawn) [Itraconazole]
